From PubChem BioAssay AID248 (DTP/NCI, 2004)
Toxic doses and inconclusive results are not listed. No stated cut-off is given here; in the data, active means T/C of 150% or more; inactive means T/C below 125%. Square brackets hold non-standard residues; d marks the D form. Peptide text beside a SMILES is read from it. * marks the point of attachment. ξ: configuration not given here. ξF = NC(Cc1ccccc1)C(=O)O; Cbz = O=C(OCc1ccccc1)*; CH2Cl = ClC*

Tested on: L1210 leukemia ip in BDF1 mice, survival T/C
Assay: NCI In Vivo Anticancer Drug Screen. Data for tumor model L1210 Leukemia (intraperitoneal) in B6D2F1 (BDF1) mice
Settings: endpoint: mean survival time, higher = longer survival
In short: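 In this screen, tumor-bearing mice given compound are compared to those given vehicle, and their survival values are reported as a treated-to-control quotient.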

[1] = dose: 100.0 mg/kg/injection, schedule: Q01DX009 (ip), vehicle: saline with Tween-80
[2] = dose: 100.0 mg/kg/injection, schedule: Q04DX003 (ip), vehicle: saline with Tween-80
[3] = dose: 200.0 mg/kg/injection, schedule: Q01DX009 (ip), vehicle: saline with Tween-80
[4] = dose: 200.0 mg/kg/injection, schedule: Q04DX003 (ip), vehicle: saline with Tween-80
[5] = dose: 400.0 mg/kg/injection, schedule: Q04DX003 (ip), vehicle: saline with Tween-80
[6] = dose: 400.0 mg/kg/injection, schedule: Q01DX009 (ip), vehicle: saline with Tween-80
[7] = dose: 100.0 mg/kg/injection, schedule: Q01DX001 (ip), vehicle: saline
[8] = dose: 200.0 mg/kg/injection, schedule: Q01DX001 (ip), vehicle: saline
[9] = dose: 400.0 mg/kg/injection, schedule: Q01DX001 (ip), vehicle: saline
[10] = dose: 100.0 mg/kg/injection, schedule: Q01DX009 (ip), vehicle: Klucel (hydroxypropylcellulose) (HPC)
[11] = dose: 200.0 mg/kg/injection, schedule: Q01DX009 (ip), vehicle: Klucel (hydroxypropylcellulose) (HPC)
[12] = dose: 400.0 mg/kg/injection, schedule: Q01DX009 (ip), vehicle: Klucel (hydroxypropylcellulose) (HPC)

Measured: T/C

Cc1c(C(=O)c2ccccc2)c2ccccc2n1C
inactive: dose: 50.0 mg/kg/injection, schedule: Q01DX001 (ip), vehicle: carboxymethylcellulose (CMC) 96 % of control | dose: 100.0 mg/kg/injection, schedule: Q01DX001 (ip), vehicle: carboxymethylcellulose (CMC) 91 % of control | dose: 200.0 mg/kg/injection, schedule: Q01DX001 (ip), vehicle: carboxymethylcellulose (CMC) 93 % of control | dose: 400.0 mg/kg/injection, schedule: Q01DX001 (ip), vehicle: carboxymethylcellulose (CMC) 93 % of control

Nc1cccc(CCCCOc2ccccc2)c1
inactive: [1] 97 % of control | [2] 97 % of control | [3] 98 % of control | [4] 103 % of control | [5] 105 % of control

O=C(NC(=S)Nc1cccc(O)c1)c1ccco1
inactive: [1] 98 % of control | [2] 104 % of control | [3] 115 % of control | [4] 107 % of control | [6] 95 % of control | [5] 102 % of control

Nc1nc(N)c2c(no[n+]2[O-])n1
inactive: dose: 75.0 mg/kg/injection, schedule: Q01DX001 (ip), vehicle: other 98 % of control

C/C(=N\N=C(N)N)c1ccc(NC(N)=S)cc1
inactive: dose: 20.0 mg/kg/injection, schedule: Q01DX005 (ip), vehicle: saline 106 % of control | dose: 40.0 mg/kg/injection, schedule: Q01DX005 (ip), vehicle: saline 97 % of control

Cc1ccc(C2(C)CC/C(=N/N=C3/CCC(C)(c4ccc(C)c(C)c4)c4cc(C)c(C)cc43)c3cc(C)c(C)cc32)cc1C (stereo not given)
inactive: [7] 93 % of control | [8] 101 % of control | [9] 98 % of control

NC(N)=N/N=C(\c1ccccc1)C(O)c1ccccc1 (stereo not given)
inactive: dose: 15.0 mg/kg/injection, schedule: Q01DX Z (ip), vehicle: carboxymethylcellulose (CMC) 106 % of control | dose: 30.0 mg/kg/injection, schedule: Q01DX Z (ip), vehicle: carboxymethylcellulose (CMC) 101 % of control | dose: 60.0 mg/kg/injection, schedule: Q01DX Z (ip), vehicle: carboxymethylcellulose (CMC) 102 % of control | dose: 60.0 mg/kg/injection, schedule: Q01DX Z (oral), vehicle: carboxymethylcellulose (CMC) 96 % of control | dose: 120.0 mg/kg/injection, schedule: Q01DX Z (ip), vehicle: carboxymethylcellulose (CMC) 98 % of control | dose: 120.0 mg/kg/injection, schedule: Q01DX Z (oral), vehicle: carboxymethylcellulose (CMC) 90 % of control | dose: 240.0 mg/kg/injection, schedule: Q01DX Z (oral), vehicle: carboxymethylcellulose (CMC) 90 % of control | dose: 480.0 mg/kg/injection, schedule: Q01DX Z (oral), vehicle: carboxymethylcellulose (CMC) 93 % of control

CCOC(=O)NCC(CCCCN(C)C)(c1cccc2ccccc12)C(C)CC (stereo not given)
inactive: dose: 12.5 mg/kg/injection, schedule: Q01DX009 (ip), vehicle: saline with Tween-80 96 % of control | dose: 25.0 mg/kg/injection, schedule: Q01DX009 (ip), vehicle: saline with Tween-80 97 % of control | dose: 50.0 mg/kg/injection, schedule: Q01DX009 (ip), vehicle: saline with Tween-80 100 % of control

CCc1cc2oc(C)c(C)c2c(N=Nc2ccccc2[N+](=O)[O-])c1O
inactive: dose: 100.0 mg/kg/injection, schedule: Q04DX002 (ip), vehicle: Klucel (hydroxypropylcellulose) (HPC) 96 % of control | dose: 200.0 mg/kg/injection, schedule: Q04DX002 (ip), vehicle: Klucel (hydroxypropylcellulose) (HPC) 96 % of control | dose: 400.0 mg/kg/injection, schedule: Q04DX002 (ip), vehicle: Klucel (hydroxypropylcellulose) (HPC) 93 % of control

O=C1CCCCCCCCCC/C1=N/O
inactive: dose: 100.0 mg/kg/injection, schedule: Q01DX001 (ip), vehicle: Klucel (hydroxypropylcellulose) (HPC) 111 % of control | dose: 200.0 mg/kg/injection, schedule: Q01DX001 (ip), vehicle: Klucel (hydroxypropylcellulose) (HPC) 101 % of control | dose: 400.0 mg/kg/injection, schedule: Q01DX001 (ip), vehicle: Klucel (hydroxypropylcellulose) (HPC) 92 % of control

CC(C)CCOC(=O)C(Br)c1ccccc1 (stereo not given)
inactive: [1] 95 % of control | [2] 104 % of control | [3] 88 % of control | [4] 99 % of control | [6] 88 % of control | [5] 95 % of control

CCCNC(=O)Nc1ccc(C)c(Cl)c1
inactive: [1] 100 % of control | [2] 108 % of control | [3] 96 % of control | [4] 101 % of control | [6] 100 % of control | [5] 95 % of control

Cc1nc(N)c2c(ncn2C2OC(CO)C(O)C2O)n1 (stereo not given)
inactive: [7] 100 % of control | [8] 108 % of control | [9] 105 % of control

COc1ccc2c(c1)CCN(C1=C(C)C(=O)CC1)C2CC(=O)O (stereo not given)
inactive: [7] 104 % of control | [8] 101 % of control | [9] 90 % of control

C/C(=N/OC(=O)N(C)C)c1ccc(Cl)c(Cl)c1
inactive: dose: 100.0 mg/kg/injection, schedule: Q01DX001 (ip), vehicle: other 96 % of control | dose: 200.0 mg/kg/injection, schedule: Q01DX001 (ip), vehicle: other 98 % of control

O=C(Nc1ccccc1O)c1ccc(Cl)c(Cl)c1
inactive: [10] 100 % of control | [11] 107 % of control | [12] 102 % of control

O=NN(Cc1ccccc1)P(=O)(O)Oc1ccccc1
inactive: dose: 4.5 mg/kg/injection, schedule: Q01DX001 (ip), vehicle: saline 100 % of control | dose: 9.0 mg/kg/injection, schedule: Q01DX001 (ip), vehicle: saline 97 % of control | dose: 13.0 mg/kg/injection, schedule: Q01DX001 (ip), vehicle: saline 100 % of control | dose: 26.0 mg/kg/injection, schedule: Q01DX001 (ip), vehicle: saline 97 % of control | dose: 40.0 mg/kg/injection, schedule: Q01DX001 (ip), vehicle: saline 114 % of control | dose: 60.0 mg/kg/injection, schedule: Q01DX001 (ip), vehicle: saline 101 % of control | dose: 93.0 mg/kg/injection, schedule: Q01DX001 (ip), vehicle: saline 97 % of control | dose: 187.0 mg/kg/injection, schedule: Q01DX001 (ip), vehicle: saline 94 % of control | dose: 250.0 mg/kg/injection, schedule: Q01DX001 (ip), vehicle: saline 95 % of control | dose: 375.0 mg/kg/injection, schedule: Q01DX001 (ip), vehicle: saline 92 % of control | dose: 500.0 mg/kg/injection, schedule: Q01DX001 (ip), vehicle: saline 100 % of control | dose: 750.0 mg/kg/injection, schedule: Q01DX001 (ip), vehicle: saline 95 % of control

O=C(CNC(=O)OCc1ccccc1)NCC(=O)NC(Cc1ccccc1)C(=O)CCl (stereo not drawn) (Cbz-Gly-Gly-[ξF]-CH2Cl)
inactive: dose: 12.0 mg/kg/injection, schedule: Q01DX001 (ip), vehicle: Klucel (hydroxypropylcellulose) (HPC) 106 % of control | dose: 25.0 mg/kg/injection, schedule: Q01DX001 (ip), vehicle: Klucel (hydroxypropylcellulose) (HPC) 97 % of control | dose: 25.0 mg/kg/injection, schedule: Q04DX003 (ip), vehicle: Klucel (hydroxypropylcellulose) (HPC) 98 % of control | dose: 50.0 mg/kg/injection, schedule: Q01DX001 (ip), vehicle: Klucel (hydroxypropylcellulose) (HPC) 108 % of control | dose: 50.0 mg/kg/injection, schedule: Q04DX003 (ip), vehicle: Klucel (hydroxypropylcellulose) (HPC) 98 % of control | dose: 100.0 mg/kg/injection, schedule: Q04DX003 (ip), vehicle: Klucel (hydroxypropylcellulose) (HPC) 104 % of control

COCCCN1CC2CCCC1O2 (stereo not given)
inactive: dose: 50.0 mg/kg/injection, schedule: Q01DX001 (ip), vehicle: saline 91 % of control | [7] 95 % of control | [8] 97 % of control

COC(=O)c1ccccc1NC(=O)Nc1cc(OC)ccc1OC
inactive: [10] 98 % of control | [11] 102 % of control | [12] 93 % of control
